Assay results taken from PubChem BioAssay AID1259411 (Chemical Carcinogenesis Research Information System (CCRIS), 2018).
Active and inactive are the calls of the source. No rule for the calls is given here.

System: rodent carcinogenicity bioassays, tumor incidence
Experiment: CCRIS carcinogenicity studies
Method in brief: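 NCI-built, expert-reviewed records of carcinogenicity and related test outcomes (mutagenicity, tumor promotion/inhibition) compiled from published and report sources, historical span 1985-2011, not updated.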

CC(=O)Nc1ccc(-c2ccc(NC(C)=O)cc2)cc1
carcinogen call (Species: RAT, Route: INTRAPERITONEAL, Tumor Site: Type of Lesion: EAR (CANAL), MAMMARY GLAND, INTEGUMENTARY SYSTEM (SKIN), Tumor Site: Type of Lesion: EAR (CANAL), MAMMARY GLAND, INTEGUMENTARY SYSTEM (SKIN)): active; positive
carcinogen call (Species: RAT, Route: ORAL, Tumor Site: Type of Lesion: EAR (CANAL)): active; positive
carcinogen call (Species: RAT, Route: SUBCUTANEOUS, Tumor Site: Type of Lesion: MAMMARY GLAND, LIVER, EAR (ZYMBAL GLAND), Tumor Site: Type of Lesion: MAMMARY GLAND, LIVER, EAR (ZYMBAL GLAND)): active; positive

CC(=O)Nc1ccc(C(=O)CCl)cc1
carcinogen call (Species: MOUSE, Strain/Sex: B6C3F1/FEMALE, Route: ORAL, Dose: 0, 5000, 10000 PPM IN DIET, Dose: 0, 5000, 10000 PPM IN DIET): inactive; negative
carcinogen call (Species: MOUSE, Strain/Sex: B6C3F1/MALE, Route: ORAL, Dose: 0, 5000, 10000 PPM IN DIET, Dose: 0, 5000, 10000 PPM IN DIET): inactive; negative
carcinogen call (Species: RAT, Strain/Sex: F344/FEMALE, Route: ORAL, Dose: 0, 1000, 2000 PPM IN DIET, Dose: 0, 1000, 2000 PPM IN DIET): inactive; negative
carcinogen call (Species: RAT, Strain/Sex: F344/MALE, Route: ORAL, Dose: 0, 1000, 2000 PPM IN DIET, Dose: 0, 1000, 2000 PPM IN DIET): inactive; negative

O=[Si]=O
carcinogen call (Species: MOUSE, Strain/Sex: STRAIN-A/MALE, Route: INTRATRACHEAL, Dose: 0, 9.75 MG/KG IN SALINE 1/WK FOR 15 WK (STUDY DURATION: 20 WK)): inactive; negative
carcinogen call (Species: RAT, Strain/Sex: F344/FEMALE, Route: INHALATION, Dose: 0, 50 MG/M3 6 HR/D 5 D/WK FOR UP TO 24 MO (STUDY DURATION: 24 MO), Tumor Site: Type of Lesion: LUNG: CARCINOMA OR ADENOMA): active; positive
carcinogen call (Species: RAT, Strain/Sex: F344/MALE,FEMALE, Route: INHALATION, Dose: 0, 1 MG/M3 6 HR/D 5 D/WK FOR 24 MO (STUDY DURATION: 25.5 MO), Tumor Site: Type of Lesion: LUNG: TUMOR): active; positive
carcinogen call (Species: RAT, Strain/Sex: F344/MALE, Route: INHALATION, Dose: 0, 50 MG/M3 6 HR/D 5 D/WK FOR UP TO 24 MO (STUDY DURATION: 24 MO)): inactive; negative
carcinogen call (Species: RAT, Strain/Sex: INBRED-W/MALE, FEMALE, Route: INTRAPERITONEAL, Dose: 20 MG ALKALINE-WASHED MIN-U-SIL CRYSTALS (A COMMERCIAL FINE QUARTZ, 99% PURE) IN 0.4 ML SALINE AUTOCLAVED SUSPENSION (ST, Tumor Site: Type of Lesion: HEMATOPOIETIC SYSTEM: THYMOMA OR LYMPHOSARCOMA, LYMPHOMA): active; positive
carcinogen call (Species: RAT, Strain/Sex: INBRED-W/MALE, FEMALE, Route: INTRAPLEURAL, Dose: 20 MG ALKALINE-WASHED CRYSTALS (CRISTABOLITE FROM QUARTZ EXPOSED TO HIGH TEMPERATURE) IN A 0.4 ML SALINE AUTOCLAVED SUSP, Tumor Site: Type of Lesion: HEMATOPOIETIC SYSTEM: MALIGNANT HISTIOCYTIC LYMPHOMA, THYMOMA OR LYMPHOSARCOMA, LYMPHOMA): active; positive
carcinogen call (Species: RAT, Strain/Sex: INBRED-W/MALE, FEMALE, Route: INTRAPLEURAL, Dose: 20 MG ALKALINE-WASHED CRYSTALS <5 µM IN SIZE IN A 0.4 ML SALINE AUTOCLAVED SUSPENSION INTO RIGHT AXILLA (STUDY DURATION:, Tumor Site: Type of Lesion: HEMATOPOIETIC SYSTEM: MALIGNANT HISTIOCYTIC LYMPHOMA, MALIGNANT TUMOR): active; positive
carcinogen call (Species: RAT, Strain/Sex: INBRED-W/MALE, FEMALE, Route: INTRAPLEURAL, Dose: 20 MG ALKALINE-WASHED MIN-U-SIL CRYSTALS (A COMMERCIAL FINE QUARTZ, 99% PURE) IN 0.4 ML SALINE AUTOCLAVED SUSPENSION INT, Tumor Site: Type of Lesion: HEMATOPOIETIC SYSTEM: LYMPHOMA): active; positive
carcinogen call (Species: Rat, Strain/Sex: Wistar/Female (48/group), Route: Intratracheal, Dose: 3 mg of 0.09-0.2 um particles given as 10 instillations before wk 26, study duration 112 wk or no treatment, Tumor Site: Type of Lesion: Lung: Bronchiolo-alveolar adenoma (2/37 experimental animals vs 0/46 control animals)): active; positive, low incidence of benign tumors.

OC1c2cc3ccc4ccccc4c3nc2C2OC2C1O (stereo unspecified)
carcinogen call (Species: MOUSE, Strain/Sex: SWISS/FEMALE, Route: INTRAPERITONEAL, Dose: 0, 1.05 UMOL GIVEN AS 150 NMOL IN 5 µL DMSO WITHIN 24 HR OF BIRTH, 300 NMOL IN 10 µL DMSO ON D 8 OF LIFE, AND 600 NMOL I): inactive; negative
carcinogen call (Species: MOUSE, Strain/Sex: SWISS/MALE, Route: INTRAPERITONEAL, Dose: 0, 1.05 UMOL GIVEN AS 150 NMOL IN 5 µL DMSO WITHIN 24 HR OF BIRTH, 300 NMOL IN 10 µL DMSO ON D 8 OF LIFE, AND 600 NMOL I): inactive; negative

[As]
carcinogen call (Species: HUMAN, Route: INHALATION, ORAL, Tumor Site: Type of Lesion: LUNG, INTEGUMENTARY SYSTEM (SKIN)): active; positive

CCc1ccccc1
carcinogen call (Species: MOUSE, Strain/Sex: B6C3F1/FEMALE, Route: INHALATION, Dose: 0, 75, 250, 750 PPM 6 HR/D 5 D/WK FOR 103 WK (STUDY DURATION: 104 WK), Dose: 0, 75, 250, 750 PPM 6 HR/D 5 D/WK FOR 103 WK (STUDY DURATION: 104 WK), Tumor Site: Type of Lesion: LIVER: HEPATOCELLULAR ADENOMA, HEPATOCELLULAR ADENOMA OR CARCINOMA): active; positive
carcinogen call (Species: MOUSE, Strain/Sex: B6C3F1/MALE, Route: INHALATION, Dose: 0, 75, 250, 750 PPM 6 HR/D 5 D/WK FOR 103 WK (STUDY DURATION: 104 WK), Dose: 0, 75, 250, 750 PPM 6 HR/D 5 D/WK FOR 103 WK (STUDY DURATION: 104 WK), Tumor Site: Type of Lesion: LUNG: ALVEOLAR/BRONCHIOLAR ADENOMA, ALVEOLAR/BRONCHIOLAR ADENOMA OR CARCINOMA): active; positive
carcinogen call (Species: RAT, Strain/Sex: F344/FEMALE, Route: INHALATION, Dose: 0, 75, 250, 750 PPM 6 HR/D 5 D/WK FOR 104 WK (STUDY DURATION: 105 WK), Dose: 0, 75, 250, 750 PPM 6 HR/D 5 D/WK FOR 104 WK (STUDY DURATION: 105 WK), Tumor Site: Type of Lesion: KIDNEY (RENAL TUBULE): ADENOMA): active; positive
carcinogen call (Species: RAT, Strain/Sex: F344/MALE, Route: INHALATION, Dose: 0, 75, 250, 750 PPM 6 HR/D 5 D/WK FOR 104 WK (STUDY DURATION: 105 WK), Dose: 0, 75, 250, 750 PPM 6 HR/D 5 D/WK FOR 104 WK (STUDY DURATION: 105 WK), Tumor Site: Type of Lesion: KIDNEY (RENAL TUBULE): ADENOMA): active; positive
carcinogen call (Species: RAT, Strain/Sex: STRAIN-CD/FEMALE, Route: INTRAGASTRIC, Dose: 0, 500 MG/KG IN OLIVE OIL 1/D 4-5 D/WK FOR 104 WK (STUDY DURATION: 104 WK)): inactive; negative
carcinogen call (Species: RAT, Strain/Sex: STRAIN-CD/MALE, Route: INTRAGASTRIC, Dose: 0, 500 MG/KG IN OLIVE OIL 1/D 4-5 D/WK FOR 104 WK (STUDY DURATION: 104 WK)): inactive; negative

CN(C)C(=O)Nc1ccc(Cl)c(Cl)c1
carcinogen call (Species: MOUSE, Strain/Sex: SWISS/FEMALE, Route: DERMAL, Dose: 0, 250 MG/KG IN 100 µL DMSO TO INTERSCAPULAR REGION 3/WK FOR 3 WK FOLLOWED 1 WK LATER BY 100 µL ACETONE 3/WK FOR DURATIO): inactive; negative
carcinogen call (Species: Mouse, Strain/Sex: Bor strain NMRI SPF HAN/Female (60/Group), Route: Oral, Dose: 0, 25, 250, 2500 ppm 98.7% diuron in diet for 24 mo, study duration 24 mo, Dose: 0, 25, 250, 2500 ppm 98.7% diuron in diet for 24 mo, study duration 24 mo, Tumor Site: Type of Lesion: Mammary gland: Adenocarcinoma (highest dose only)): active; positive. (ca department of pesticide regulation reviewer evaluates as a possibl
carcinogen call (Species: Mouse, Strain/Sex: Bor strain NMRI SPF HAN/Male (60/Group), Route: Oral, Dose: 0, 25, 250, 2500 ppm 98.7% diuron in diet for 24 mo, study duration 24 mo, Dose: 0, 25, 250, 2500 ppm 98.7% diuron in diet for 24 mo, study duration 24 mo): inactive; negative
carcinogen call (Species: Rat, Strain/Sex: Wistar/Female (50/Group), Route: Oral, Dose: 0, 25, 250, 2500 ppm 98.7% diuron in diet for 2 yr, study duration 2 yr, Dose: 0, 25, 250, 2500 ppm 98.7% diuron in diet for 2 yr, study duration 2 yr, Tumor Site: Type of Lesion: Urinary bladder: Transitional epithelial cell carcinoma (highest dose only)): active; positive. (ca department of pesticide regulation reviewer evaluates as a possibl
carcinogen call (Species: Rat, Strain/Sex: Wistar/Male (50/Group), Route: Oral, Dose: 0, 25, 250, 2500 ppm 98.7% diuron in diet for 2 yr, study duration 2 yr, Dose: 0, 25, 250, 2500 ppm 98.7% diuron in diet for 2 yr, study duration 2 yr, Tumor Site: Type of Lesion: Urinary bladder: Transitional epithelial cell carcinoma (highest dose only). Kidney: Epithelial cell tumors in renal pel): active; positive. (ca department of pesticide regulation reviewer evaluates as a possibl

COc1cccc2c1cc([N+](=O)[O-])c1c(C(=O)O)cc3c(c12)OCO3
carcinogen call (Species: RAT, Strain/Sex: SPRAGUE-DAWLEY/FEMALE, Route: ORAL, GAVAGE, Dose: 50 MG/KG BW/D FOR 3 D (STUDY DURATION: 6 MO), Tumor Site: Type of Lesion: KIDNEY: TUMORS, 29% (THERE WERE 3 MESENCHYMAL TUMORS AND 1 RENAL ONCOCYTOMA IN 14 ANIMALS)): active; positive
